Our source for the Appearance and residual amount values is patent US11667604B2, “Phenyl containing compound, intermediate thereof, preparation method therefor and application thereof” (SHANGHAI MODERN PHARMACEUTICAL ENGINEERING RESEARCH CENTER …, priority 2019, dated 2023).

A short description of this data set: Stability testing of carriers in solid form, residual amount determined by HPLC, and appearance. The format is physicochemical. To be noted: for Appearance: storage condition not specified. Here is the method:
The carrier of embodiment 1 was placed in solid form under normal temperature and normal light, normal temperature and away from light, 4° C. away from light and −18° C. away from light, respectively, and the residual amount of the carrier was measured after being placed for 1d, 3d, 7d, 30d, 60d, 90d and 120d, respectively, and the residual amount was determined by HPLC.
The sodium salt of N-(all-trans-retinoyl)-L-cysteic acid methyl ester was placed in solid form at normal temperature and normal light, at normal temperature and away from light, at 4° C. away from light and at −18° C. away from light respectively (other conditions are the same as those in embodiment 4), and the appearance and residual amount were tested after being placed for 1d, 3d, 7d and 30d, respectively, wherein the residual amount was determined by HPLC.

Structures can show the parent of a compound that is named as a salt.

As to `COC(=O)[C@H](CS(=O)(=O)O)NC(=O)/C=C(C)/C=C/C=C(C)/C=C/C1=C(C)CCCC1(C)C` [sodium salt of N-(all-trans-retinoyl)-L-cysteic acid methyl ester], the Appearance result runs as follows: (0 d) “Yellow powder”; (3 d) “Orange”; (7 d) “Brown viscous”; (30 d) “Dark brown viscous”. Further, the residual amount reads like this: (4° C. away from light, 0 d) 99.54%; (4° C. away from light, 3 d) 93.76%; (4° C. away from light, 7 d) 89.09%; (4° C. away from light, 30 d) 79.69%; (normal temperature and away from light, 0 d) 99.54%; (normal temperature and away from light, 3 d) 88.91%. Moreover, the residual amount by setting is: (normal temperature and away from light, 7 d) 78.62%; (normal temperature and normal light, 0 d) 99.54%; (normal temperature and normal light, 3 d) 83.71%; (normal temperature and normal light, 7 d) 64.32%; (−18° C. away from light, 0 d) 99.54%; (−18° C. away from light, 3 d) 96.16%. In addition, the residual amount is, setting by setting: (−18° C. away from light, 7 d) 94.17%; (−18° C. away from light, 30 d) 89.98%.
